Assay results reported in the NIST ThermoML archive (doi:10.1007/s10765-010-0725-9).
Several values for one entry are separate records, joined by “and”; a condition that tells them apart may be missing. Identical values can stand only once. ± gives the expanded uncertainty stated by the source.

What was measured:
[1] = Pendant drop shape
[2] = wn = mass fraction of the nth substance listed; settings: Pendant drop shape

Row | Compound | surface tension liquid-gas ([2]; 303.15 K, w1 = 0.04) [mN/m] | surface tension liquid-gas ([2]; 303.15 K, w1 = 0.1) [mN/m] | surface tension liquid-gas ([2]; 303.15 K, w1 = 0.14) [mN/m] | surface tension liquid-gas ([2]; 303.15 K, w1 = 0.18) [mN/m] | surface tension liquid-gas ([2]; 313.15 K, w1 = 0.04) [mN/m] | surface tension liquid-gas ([2]; 313.15 K, w1 = 0.1) [mN/m] | surface tension liquid-gas ([2]; 313.15 K, w1 = 0.14) [mN/m] | surface tension liquid-gas ([2]; 313.15 K, w1 = 0.18) [mN/m] | surface tension liquid-gas ([2]; 323.15 K, w1 = 0.04) [mN/m] | surface tension liquid-gas ([2]; 323.15 K, w1 = 0.1) [mN/m] | surface tension liquid-gas ([2]; 323.15 K, w1 = 0.14) [mN/m] | surface tension liquid-gas ([2]; 323.15 K, w1 = 0.18) [mN/m] | surface tension liquid-gas ([2]; 333.15 K, w1 = 0.04) [mN/m] | surface tension liquid-gas ([2]; 333.15 K, w1 = 0.1) [mN/m] | surface tension liquid-gas ([2]; 333.15 K, w1 = 0.14) [mN/m] | surface tension liquid-gas ([2]; 333.15 K, w1 = 0.18) [mN/m] | further results
1 | O [water] |  |  |  |  |  |  |  |  |  |  |  |  |  |  |  |  | surface tension liquid-gas ([1]; 303.15 K): 71.54 ± 0.82 mN/m and 72.12 ± 0.82 mN/m and 71.58 ± 0.82 mN/m; surface tension liquid-gas ([1]; 313.15 K): 70.64 ± 0.81 mN/m and 68.96 ± 0.79 mN/m and 69.86 ± 0.8 mN/m; surface tension liquid-gas ([1]; 323.15 K): 69.15 ± 0.79 mN/m and 67.83 ± 0.78 mN/m and 67.57 ± 0.78 mN/m; surface tension liquid-gas ([1]; 333.15 K): 66.16 ± 0.76 mN/m and 66.39 ± 0.76 mN/m; surface tension liquid-gas ([1]; 343.15 K): 65.39 ± 0.75 mN/m and 65.8 ± 0.8 mN/m and 64.73 ± 0.75 mN/m
2 | O=S(=O)([O-])[O-].[Na+].[Na+] [sodium sulfate] + O | 71.53 ± 0.8 | 73.56 ± 0.83 | 74.02 ± 0.83 | 76.28 ± 0.86 | 70.7 ± 0.8 | 71.88 ± 0.81 | 72.82 ± 0.82 | 74.97 ± 0.84 | 68.8 ± 0.78 | 70.5 ± 0.79 | 71.65 ± 0.81 | 73.22 ± 0.83 | 67.27 ± 0.76 | 69.11 ± 0.78 | 69.93 ± 0.79 | 71.4 ± 0.81 | 
3 | [Cl-].[Na+] [sodium chloride] + O | 71.44 ± 1.2 | 73.42 ± 1.3 | 76.09 ± 1.3 | 77.04 ± 1.3 | 70.66 ± 1.2 | 71.81 ± 1.2 | 74.6 ± 1.3 | 74.73 ± 1.3 | 68.25 ± 1.2 | 70.97 ± 1.2 | 72.47 ± 1.3 | 73.38 ± 1.3 | 67.31 ± 1.2 | 69.74 ± 1.2 | 71.83 ± 1.2 | 71.44 ± 1.2 | 
4 | [Cl-].[K+] [potassium chloride] + O |  | 71.58 ± 1 | 72.12 ± 1.1 | 76.78 ± 1.1 |  | 69.86 ± 1 | 70.64 ± 1 | 75.23 ± 1.1 |  | 67.57 ± 0.98 | 69.15 ± 1 | 74.65 ± 1.1 |  | 66.39 ± 0.96 | 66.16 ± 0.96 | 71.44 ± 1 | 
5 | [Ca+2].[Cl-].[Cl-] [calcium chloride] + O | 72.74 ± 0.9 | 74.59 ± 0.93 | 76.08 ± 0.94 | 77.53 ± 0.96 | 70.84 ± 0.88 | 72.56 ± 0.9 | 73.65 ± 0.92 | 74.89 ± 0.93 | 69.62 ± 0.87 | 70.38 ± 0.88 | 71.52 ± 0.89 | 73.25 ± 0.91 | 67.62 ± 0.84 | 68.56 ± 0.85 | 70.63 ± 0.88 | 71.87 ± 0.9 | 
